According to patent US20120029187A1, “HALOALKYLSULFONANILIDE DERIVATIVE” (Nissan Chemical Industries, Ltd., priority 2009, published 2012):

What was measured:
Assay type in all cases: in vivo
barnyardgrass [1] = assay: Test Example 1: herbicidal effects in preemergence treatment under submerged conditions; details: dose 2.52 g/a
Procedure, shortened: (§1)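 Submerged conditions, 4 cm water over alluvial soil. Weeds sown and 2.5-leaf rice transplanted; compound applied preemergence to water surface, doses in g per are. Greenhouse, 25 to 30° C., three weeks, then 0–5 mortality rating.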

bulrush [2] = assay: as above; details: dose 2.52 g/a
Procedure, shortened: as §1

ducksalad [3] = assay: as above; details: dose 2.52 g/a
Procedure, shortened: as §1

transplanted rice = assay: Test Example 1: preemergence treatment under submerged conditions, effect on crop; details: dose 2.52 g/a
Procedure, shortened: as §1

barnyardgrass [4] = assay: Test Example 2: herbicidal effects during the vegetation period under submerged conditions; details: treatment during the vegetation period under submerged conditions; dose 2.52 g/a
Procedure, shortened: (§2)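 Barnyardgrass, bulrush and ducksalad were co-sown in alluvial soil flooded to 4 cm and grown in a greenhouse at 25 to 30° C. At the 1- or 2-leaf stage, water-diluted emulsifiable concentrates went onto the water surface at set doses (g/a). Herbicidal effect was scored three weeks later on a graded scale.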

bulrush [5] = assay: as above; details: treatment during the vegetation period under submerged conditions; dose 2.52 g/a
Procedure, shortened: as §2

ducksalad [6] = assay: as above; details: treatment during the vegetation period under submerged conditions; dose 2.52 g/a
Procedure, shortened: as §2

Italian ryegrass [7] = assay: Test Example 3: herbicidal effects in soil treatment; details: dose 3.2 g/a
Procedure, shortened: (§3)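 Seeds were sown in sterilized diluvial soil and covered with about 1.5 cm of soil. Compounds, formulated as emulsifiable concentrates and diluted with water, were sprayed evenly over the soil surface at set doses in g/a. Herbicidal effect was scored on a rating scale three weeks later.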

barnyardgrass [8] = assay: as above; details: dose 3.2 g/a
Procedure, shortened: as §3

common chickweed [9] = assay: as above; details: dose 3.2 g/a
Procedure, shortened: as §3

common lambsquater [10] = assay: as above; details: dose 3.2 g/a
Procedure, shortened: as §3

common ragweed [11] = assay: as above; details: dose 3.2 g/a
Procedure, shortened: as §3

giant foxtail [12] = assay: as above; details: dose 3.2 g/a
Procedure, shortened: as §3

large crabgrass [13] = assay: as above; details: dose 3.2 g/a
Procedure, shortened: as §3

posumbu knotweed [14] = assay: as above; details: dose 3.2 g/a
Procedure, shortened: as §3

redroot pigweed [15] = assay: as above; details: dose 3.2 g/a
Procedure, shortened: as §3

velvetleaf [16] = assay: as above; details: dose 3.2 g/a
Procedure, shortened: as §3

water foxtail [17] = assay: as above; details: dose 3.2 g/a
Procedure, shortened: as §3

Italian ryegrass [18] = assay: Test Example 4: herbicidal effect in foliage treatment; details: dose 3.2 g/a, three weeks after application
Procedure, shortened: (§4)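 Herbicidal effect was rated on an evaluation scale three weeks after treatment. Plants had been raised 14 days at 25 to 30° C in sterilized diluvial soil, then received foliar sprays of emulsifiable concentrate diluted in water at predetermined doses expressed as g per are.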

barnyardgrass [19] = assay: as above; details: dose 3.2 g/a, three weeks after application
Procedure, shortened: as §4

beadstraw = assay: as above; details: dose 3.2 g/a, three weeks after application
Procedure, shortened: as §4

common chickweed [20] = assay: as above; details: dose 3.2 g/a, three weeks after application
Procedure, shortened: as §4

common lambsquater [21] = assay: as above; details: dose 3.2 g/a, three weeks after application
Procedure, shortened: as §4

common ragweed [22] = assay: as above; details: dose 3.2 g/a, three weeks after application
Procedure, shortened: as §4

giant foxtail [23] = assay: as above; details: dose 3.2 g/a, three weeks after application
Procedure, shortened: as §4

large crabgrass [24] = assay: as above; details: dose 3.2 g/a, three weeks after application
Procedure, shortened: as §4

posumbu knotweed [25] = assay: as above; details: dose 3.2 g/a, three weeks after application
Procedure, shortened: as §4

redroot pigweed [26] = assay: as above; details: dose 3.2 g/a, three weeks after application
Procedure, shortened: as §4

velvetleaf [27] = assay: as above; details: dose 3.2 g/a, three weeks after application
Procedure, shortened: as §4

water foxtail [28] = assay: as above; details: dose 3.2 g/a, three weeks after application
Procedure, shortened: as §4

Compound | A: barnyardgrass, herbicidal effect (evaluation scale 0-5) (barnyardgrass [1]) | B: bulrush, herbicidal effect (evaluation scale 0-5) (bulrush [2]) | C: ducksalad, herbicidal effect (evaluation scale 0-5) (ducksalad [3]) | a: transplanted rice, effect on crop (evaluation scale 0-5) (transplanted rice) | A: barnyardgrass, herbicidal effect (evaluation scale 0-5) (barnyardgrass [4]) | B: bulrush, herbicidal effect (evaluation scale 0-5) (bulrush [5]) | C: ducksalad, herbicidal effect (evaluation scale 0-5) (ducksalad [6]) | H: Italian ryegrass, herbicidal effect (evaluation scale 0-5) (Italian ryegrass [7]) | A: barnyardgrass, herbicidal effect (evaluation scale 0-5) (barnyardgrass [8]) | N: common chickweed, herbicidal effect (evaluation scale 0-5) (common chickweed [9]) | L: common lambsquater, herbicidal effect (evaluation scale 0-5) (common lambsquater [10]) | J: common ragweed, herbicidal effect (evaluation scale 0-5) (common ragweed [11]) | E: giant foxtail, herbicidal effect (evaluation scale 0-5) (giant foxtail [12]) | D: large crabgrass, herbicidal effect (evaluation scale 0-5) (large crabgrass [13]) | M: posumbu knotweed, herbicidal effect (evaluation scale 0-5) (posumbu knotweed [14]) | K: redroot pigweed, herbicidal effect (evaluation scale 0-5) (redroot pigweed [15]) | I: velvetleaf, herbicidal effect (evaluation scale 0-5) (velvetleaf [16]) | G: water foxtail, herbicidal effect (evaluation scale 0-5) (water foxtail [17]) | H: Italian ryegrass, herbicidal effect (Italian ryegrass [18]) | A: barnyardgrass, herbicidal effect (barnyardgrass [19]) | other results
CCC1(C)CC(=O)N(Cc2ccccc2N(C(=O)OCC(C)C)S(=O)(=O)C(F)(F)F)CO1 (stereo not drawn) [II-43] | 5 (mortality of 90% or above (nearly complete death)) | 5 (mortality of 90% or above (nearly complete death)) | 5 (mortality of 90% or above (nearly complete death)) | 0 (mortality of less than 5% (almost ineffective)) | 5 (mortality of 90% or above (nearly complete death)) | 5 (mortality of 90% or above (nearly complete death)) | 5 (mortality of 90% or above (nearly complete death)) | 5 (mortality of 90% or above (nearly complete death)) | 4 (mortality of at least 70% and less than 90%) | 5 (mortality of 90% or above (nearly complete death)) | 5 (mortality of 90% or above (nearly complete death)) | 3 (mortality of at least 40% and less than 70%) | 2 (mortality of at least 20% and less than 40%) | 3 (mortality of at least 40% and less than 70%) | 4 (mortality of at least 70% and less than 90%) | 2 (mortality of at least 20% and less than 40%) | 5 (mortality of 90% or above (nearly complete death)) | 5 (mortality of 90% or above (nearly complete death)) | 4 (mortality of at least 70% and less than 90%) | 5 (mortality of 90% or above (nearly complete death)) | O: beadstraw, herbicidal effect (beadstraw): 4 (mortality of at least 70% and less than 90%); N: common chickweed, herbicidal effect (common chickweed [20]): 3 (mortality of at least 40% and less than 70%); L: common lambsquater, herbicidal effect (common lambsquater [21]): 2 (mortality of at least 20% and less than 40%); J: common ragweed, herbicidal effect (common ragweed [22]): 3 (mortality of at least 40% and less than 70%); E: giant foxtail, herbicidal effect (giant foxtail [23]): 4 (mortality of at least 70% and less than 90%); D: large crabgrass, herbicidal effect (large crabgrass [24]): 1 (mortality of at least 5% and less than 20%); M: posumbu knotweed, herbicidal effect (posumbu knotweed [25]): 0 (mortality of less than 5% (almost ineffective)); K: redroot pigweed, herbicidal effect (redroot pigweed [26]): 0 (mortality of less than 5% (almost ineffective)); I: velvetleaf, herbicidal effect (velvetleaf [27]): 5 (mortality of 90% or above (nearly complete death)); G: water foxtail, herbicidal effect (water foxtail [28]): 5 (mortality of 90% or above (nearly complete death))
CC1(C(F)(F)F)CC(=O)N(Cc2ccccc2NS(=O)(=O)C(F)(F)F)CO1 (stereo not drawn) [II-46] | 4 (mortality of at least 70% and less than 90%) | 5 (mortality of 90% or above (nearly complete death)) | 5 (mortality of 90% or above (nearly complete death)) | 0 (mortality of less than 5% (almost ineffective)) | 4 (mortality of at least 70% and less than 90%) | 5 (mortality of 90% or above (nearly complete death)) | 5 (mortality of 90% or above (nearly complete death)) | 3 (mortality of at least 40% and less than 70%) | 5 (mortality of 90% or above (nearly complete death)) | 4 (mortality of at least 70% and less than 90%) | 4 (mortality of at least 70% and less than 90%) | 4 (mortality of at least 70% and less than 90%) | 5 (mortality of 90% or above (nearly complete death)) | 5 (mortality of 90% or above (nearly complete death)) | 3 (mortality of at least 40% and less than 70%) | 0 (mortality of less than 5% (almost ineffective)) | 3 (mortality of at least 40% and less than 70%) | 5 (mortality of 90% or above (nearly complete death)) | 0 (mortality of less than 5% (almost ineffective)) | 4 (mortality of at least 70% and less than 90%) | O: beadstraw, herbicidal effect (beadstraw): 4 (mortality of at least 70% and less than 90%); N: common chickweed, herbicidal effect (common chickweed [20]): 4 (mortality of at least 70% and less than 90%); L: common lambsquater, herbicidal effect (common lambsquater [21]): 2 (mortality of at least 20% and less than 40%); J: common ragweed, herbicidal effect (common ragweed [22]): 3 (mortality of at least 40% and less than 70%); E: giant foxtail, herbicidal effect (giant foxtail [23]): 4 (mortality of at least 70% and less than 90%); D: large crabgrass, herbicidal effect (large crabgrass [24]): 4 (mortality of at least 70% and less than 90%); M: posumbu knotweed, herbicidal effect (posumbu knotweed [25]): 2 (mortality of at least 20% and less than 40%); K: redroot pigweed, herbicidal effect (redroot pigweed [26]): 0 (mortality of less than 5% (almost ineffective)); I: velvetleaf, herbicidal effect (velvetleaf [27]): 1 (mortality of at least 5% and less than 20%); G: water foxtail, herbicidal effect (water foxtail [28]): 2 (mortality of at least 20% and less than 40%)
